Data reported in patent publication US10533201B2, “Enzymatic transphosphorylation of sugar substrates” (priority 2014, dated 2020).
Where two headings read alike, the source gives them in different places.

Tests used:
Format in all cases: biochemical
[1] = target: glucose-1-phosphatase (Escherichia coli, UniProt P19926, D396N/Q163K/Y105D); conditions: 20 mM αGlc 1-P and 200 mM acceptor
Procedure: FIG. 10: Acceptor substrates phosphorylated by glucose-1-phosphatase. […] Product yields were determined at conversions >90% except for N-acetyl D-glucosamine (GlcNAc) 38%, D-glucosamine (D-GlcN) 81%, D-xylose (D-Xyl) 69%, L-Arabinose (L-Ara) 86%, D-Xylitol (D-Xol) 89% and L-Fucose (L-Fuc) 75%, respectively. All acceptors are phosphorylated at the C1-OH position except for (*) D-glucosamine where the predominant product was phosphorylated at the C6-OH. Light grey bars indicate rS/rP ratio, while the dark grey bars indicate the product yield.
Product yields were determined at conversions >90% except for N-acetyl D-glucosamine (GlcNAc) 38%, D-glucosamine (D-GlcN) 81%, D-xylose (D-Xyl) 69%, L-Arabinose (L-Ara) 86%, D-Xylitol (D-Xol) 89% and L-Fucose (L-Fuc) 75%, respectively. All acceptors are phosphorylated at the C1-OH position except for (*) D-glucosamine where the predominant product was phosphorylated at the C6-OH. Light grey bars indicate rS/rP ratio, while the dark grey bars indicate the product yield.

[2] = target: T1, αGlc 1-P phosphatase (Escherichia coli, UniProt P19926, D396N/Q163K/Y105D); conditions: 20 mM substrate; for hydrolysis by αGlc 1-P phosphatase (in words): pyrophosphate and phytate at pH 7.0 and pH 4.5
T1 construct: Strep-tag (N); made in house; host or cells: E. coli Origami B (DE3), cytoplasmic, pMS470_dsbC vector (DsbC co-expressed)
Procedure: Inorganic phosphate was determined colorimetrically at 850 nm (56).
Hydrolysis reactions were carried out at an initial substrate concentration of 20 mM. […] Samples were taken in 15 min intervals, heat-treated (99° C., 5 min), and centrifuged at 20,000 g for 5 min. The release of phosphate was measured, and the initial rate V (mM min^−1) was determined from the linear relationship between phosphate concentration and time. […] (2)
A series of phosphorylated sugars were tested as substrates for hydrolysis by phosphatase.

[3] = target: T1, αGlc 1-P phosphatase; conditions: for Fru 1-P kcat_app (formation) / Fru 6-P kcat_app (formation) / Glc 6-P kcat_app (formation) / Glc 1-P kcat_app (consumption) / Phosphate kcat_app (release): pH 7.0, 37° C.
Procedure: Fru 6-P was measured using an assay with mannitol 1-phosphate dehydrogenase (52). […] (1)
Fru (100, 200, 400 or 600 mM) or Glc (200 mM) was used as the acceptor substrate. […] Sampling was done to allow for determination of initial rates, but the full reaction time course was also recorded. Relevant kcat_app values for substrate consumption, phosphate release, and phosphoryl transfer were obtained from the corresponding V values using equation 2. Internal consistency of the data was always checked by mass balance. pH dependence of phosphoryl transfer. […] A 50 mM Mes buffer was used, except at pH ≤6.0 where 50 mM Mes and 20 mM sodium acetate were used, and at pH 8.0 where 50 mM Mes and 50 mM Tes were used. Buffer pH values were adjusted at 37° C. and controlled before and after recording each enzyme-catalyzed reaction. Sampling and analyses were as described above.
For data analysis by non-linear least-squares regression, SigmaPlot 2004 version 9.0 was used. Equation 3 describes a pH dependence where activity (expressed as logarithmic kcat_app) is constant at low pH and decreases above pKB. C is the pH-independent value of kcat_app at the optimum state of protonation, K is the proton dissociation constant and [H^+] is the proton concentration. log(kcat_app)=log(C/(1+K/[H^+])) (3) High Performance Anion Exchange Chromatography with Pulsed Amperometric Detection (HPAEC-PAD).
Selected samples were analyzed on a Dionex BioLC system (Dionex Corporation, Sunnyvale, USA) equipped with a CarboPac PA10 column (4×250 mm) and an Amino Trap guard column (4×50 mm) thermostated at 30° C. […] Elution was carried out at a flow rate of 0.9 mL/min with the following method: isocratic flow of 52 mM NaOH for 20 min, followed by a linear gradient from 100 mM NaOAc to 400 mM NaOAc, applied within 25 min in an isocratic background of 100 mM NaOH. The column was washed for 5 min with 52 mM NaOH.

[4] = 0.1 μM enzyme, 37° C., 50 mM Mes pH 7.0, n.d. = no activity above assay detection limit
[5] = 200 mM Glc acceptor, 20 mM αGlc 1-P
[6] = 200 mM Glc acceptor, 20 mM αGlc 1-P, pH 7.0

T1 sequence (P19926 other isoform, or with tags, fused parts or gaps Y105D/Q163K/D396N): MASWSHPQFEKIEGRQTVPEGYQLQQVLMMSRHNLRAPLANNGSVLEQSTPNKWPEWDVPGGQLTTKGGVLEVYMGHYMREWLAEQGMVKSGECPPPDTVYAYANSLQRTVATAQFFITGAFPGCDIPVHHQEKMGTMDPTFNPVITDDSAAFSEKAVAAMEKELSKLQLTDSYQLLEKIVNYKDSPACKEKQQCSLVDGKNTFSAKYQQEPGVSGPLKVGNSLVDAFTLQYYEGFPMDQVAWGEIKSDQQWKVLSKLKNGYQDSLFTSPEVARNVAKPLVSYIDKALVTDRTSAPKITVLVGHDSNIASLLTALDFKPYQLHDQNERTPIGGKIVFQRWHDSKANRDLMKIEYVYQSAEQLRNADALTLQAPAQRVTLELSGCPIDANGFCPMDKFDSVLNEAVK
Chain of glucose-1-phosphatase (P19926 other isoform, or with tags, fused parts or gaps Y105D/Q163K/D396N): as above

Compound: O=C[C@H](O)[C@@H](O)[C@H](O)[C@H](O)C(=O)O [D-Glucuronic acid]
- phosphorylation of acceptor by glucose-1-phosphatase (in words) [1]: not phosphorylated

Compound: N[C@H]1C(O)O[C@H](CO)[C@H](O)[C@@H]1O (stereo partly drawn) [D-galactosamine]
- phosphorylation of acceptor by glucose-1-phosphatase (in words) [1]: not phosphorylated

Compound: O=C(COP(=O)(O)O)[C@@H](O)[C@H](O)[C@H](O)CO [Fru 1-P, D-fructose 1-phosphate]
- αGlc 1-P phosphatase kcat_app, hydrolysis [2, 4]: 22 s⁻¹
- Fru 1-P kcat_app (formation) ([3]; Fru 100 mM, 20 mM αGlc 1-P): 39 s⁻¹
- Fru 1-P kcat_app (formation) ([3]; Fru 200 mM, 20 mM αGlc 1-P): 88 s⁻¹
- Fru 1-P kcat_app (formation) ([3]; Fru 400 mM, 20 mM αGlc 1-P): 111^a s^−1
- Fru 1-P kcat_app (formation) ([3]; Fru 600 mM, 20 mM αGlc 1-P): 135 s⁻¹

Compound: O=C(CO)[C@@H](O)[C@H](O)[C@H](O)COP(=O)(O)O [Fru 6-P, D-fructose-6-phosphate]
- αGlc 1-P phosphatase kcat_app, hydrolysis [2, 4]: 22^a s^−1
- Fru 6-P kcat_app (formation) ([3]; Fru 100 mM, 20 mM αGlc 1-P): 11^b s^−1
- Fru 6-P kcat_app (formation) ([3]; Fru 200 mM, 20 mM αGlc 1-P): 20^ s^−1
- Fru 6-P kcat_app (formation) ([3]; Fru 400 mM, 20 mM αGlc 1-P): 28^ s^−1
- Fru 6-P kcat_app (formation) ([3]; Fru 600 mM, 20 mM αGlc 1-P): 36^c s^−1

Compound: O=C[C@H](O)[C@@H](O)[C@H](O)[C@H](O)COP(=O)(O)O [Glc 6-P, D-glucose-6-phosphate]
- αGlc 1-P phosphatase kcat_app, hydrolysis [2, 4]: 56 s⁻¹
- kcat_app ratio for formation of Glc 6-P and phosphate [3, 5]: 8.5
- kcat_app for Glc 6-P synthesis [3, 6]: 34 s⁻¹
- Glc 6-P kcat_app (formation) ([3]; Fru 100 mM, 20 mM αGlc 1-P): 5 s⁻¹
- Glc 6-P kcat_app (formation) ([3]; Fru 200 mM, 20 mM αGlc 1-P): 6 s⁻¹
- Glc 6-P kcat_app (formation) ([3]; Fru 400 mM, 20 mM αGlc 1-P): 4 s⁻¹
- Glc 6-P kcat_app (formation) ([3]; Fru 600 mM, 20 mM αGlc 1-P): 5 s⁻¹

Compound: O=P(O)(O)O[C@H]1[C@H](OP(=O)(O)O)[C@@H](OP(=O)(O)O)[C@H](OP(=O)(O)O)[C@@H](OP(=O)(O)O)[C@H]1OP(=O)(O)O [Phytate, myo-inositol hexakisphosphate]
- hydrolysis by αGlc 1-P phosphatase (in words) [2]: weakly active
- αGlc 1-P phosphatase kcat_app, hydrolysis ([2]; reactions at pH 7.0 and pH 4.5 (50 mM sodium acetate), phytate active only at pH 4.5, n.d. = no activity above detection limit): 2.1 s⁻¹

Compound: O=P(O)(O)OP(=O)(O)O [Pyrophosphate]
- hydrolysis by αGlc 1-P phosphatase (in words) [2]: not hydrolyzed

Compound: O=P(O)(O)O[C@H]1O[C@H](CO)[C@@H](O)[C@H](O)[C@H]1O [αGlc 1-P, alpha-glucose-1-phosphate]
- αGlc 1-P phosphatase kcat_app, hydrolysis [2, 4]: 40 s⁻¹
- enhancement of α-Glc 1-P consumption rate compared to control without Fru ([3]; 200 mM Fru, 20 mM α-Glc 1-P): about 3 fold
- kcat_app for α-Glc 1-P consumption [3, 6]: 40 s⁻¹
- Glc 1-P kcat_app (consumption) ([3]; Fru 0 mM, 20 mM αGlc 1-P): 40 s⁻¹
- Glc 1-P kcat_app (consumption) ([3]; Fru 100 mM, 20 mM αGlc 1-P): 73 s⁻¹
- Glc 1-P kcat_app (consumption) ([3]; Fru 200 mM, 20 mM αGlc 1-P): 137 s⁻¹
- Glc 1-P kcat_app (consumption) ([3]; Fru 400 mM, 20 mM αGlc 1-P): 162 s⁻¹
- Glc 1-P kcat_app (consumption) ([3]; Fru 600 mM, 20 mM αGlc 1-P): 189 s⁻¹
- increase of kcat_app (α-Glc 1-P) in hyperbolic dependence of the Fru concentration ([3]; Fru 100-600 mM): about 5 fold

Compound: O=P(O)(O)O[C@@H]1O[C@H](CO)[C@@H](O)[C@H](O)[C@H]1O [βGlc 1-P]
- hydrolysis by αGlc 1-P phosphatase (in words) [2]: completely inactive

Compound: phosphate
- decrease of phosphate release rate compared to control without Fru ([3]; 200 mM Fru, 20 mM α-Glc 1-P): about 2 fold
- suppression of phosphate release rate compared to control reaction lacking Glc [3, 5]: about 10 fold
- kcat_app of phosphate formation [3, 6]: 4 s⁻¹
- Phosphate kcat_app (release) ([3]; Fru 0 mM, 20 mM αGlc 1-P): 40 s⁻¹
- Phosphate kcat_app (release) ([3]; Fru 100 mM, 20 mM αGlc 1-P): 21 s⁻¹
- Phosphate kcat_app (release) ([3]; Fru 200 mM, 20 mM αGlc 1-P): 18 s⁻¹
- Phosphate kcat_app (release) ([3]; Fru 400 mM, 20 mM αGlc 1-P): 14 s⁻¹
- Phosphate kcat_app (release) ([3]; Fru 600 mM, 20 mM αGlc 1-P): 13 s⁻¹
